Data published in patent US8791107B2, “N-substituted oxazinopteridines and oxazinopteridinones” (Takeda Pharmaceutical Company Limited, priority 2011, dated 2014).

Each compound was assayed against T1, PI3Kδ (Homo sapiens, UniProt O00329) (assay: PI3Kδ inhibition, modified PIK3CD Adapta TR-FRET assay). Settings: recombinant GST-tagged full length PIK3CD co-expressed with PIK3R1 (p85α); 2 μM ATP, 50 μM PIP2.
T1 construct: The protein is full length and co-expressed with untagged PIK3R1; GST; purchased Invitrogen PV5274
Type: biochemical
How it was run: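 Full-length GST-PIK3CD co-expressed with p85α was run in 50 mM HEPES pH 7.5, 3 mM MgCl2, 1 mM EGTA, 100 mM NaCl, 0.03% CHAPS, 2 mM DTT, 1% DMSO, with 12-point compound titrations. Reactions at room temperature were started with solution containing 2 μM ATP and 50 μM PIP2. ADP was detected by Adapta TR-FRET (620 nm-ratioed).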

T1 sequence (O00329 whole entry): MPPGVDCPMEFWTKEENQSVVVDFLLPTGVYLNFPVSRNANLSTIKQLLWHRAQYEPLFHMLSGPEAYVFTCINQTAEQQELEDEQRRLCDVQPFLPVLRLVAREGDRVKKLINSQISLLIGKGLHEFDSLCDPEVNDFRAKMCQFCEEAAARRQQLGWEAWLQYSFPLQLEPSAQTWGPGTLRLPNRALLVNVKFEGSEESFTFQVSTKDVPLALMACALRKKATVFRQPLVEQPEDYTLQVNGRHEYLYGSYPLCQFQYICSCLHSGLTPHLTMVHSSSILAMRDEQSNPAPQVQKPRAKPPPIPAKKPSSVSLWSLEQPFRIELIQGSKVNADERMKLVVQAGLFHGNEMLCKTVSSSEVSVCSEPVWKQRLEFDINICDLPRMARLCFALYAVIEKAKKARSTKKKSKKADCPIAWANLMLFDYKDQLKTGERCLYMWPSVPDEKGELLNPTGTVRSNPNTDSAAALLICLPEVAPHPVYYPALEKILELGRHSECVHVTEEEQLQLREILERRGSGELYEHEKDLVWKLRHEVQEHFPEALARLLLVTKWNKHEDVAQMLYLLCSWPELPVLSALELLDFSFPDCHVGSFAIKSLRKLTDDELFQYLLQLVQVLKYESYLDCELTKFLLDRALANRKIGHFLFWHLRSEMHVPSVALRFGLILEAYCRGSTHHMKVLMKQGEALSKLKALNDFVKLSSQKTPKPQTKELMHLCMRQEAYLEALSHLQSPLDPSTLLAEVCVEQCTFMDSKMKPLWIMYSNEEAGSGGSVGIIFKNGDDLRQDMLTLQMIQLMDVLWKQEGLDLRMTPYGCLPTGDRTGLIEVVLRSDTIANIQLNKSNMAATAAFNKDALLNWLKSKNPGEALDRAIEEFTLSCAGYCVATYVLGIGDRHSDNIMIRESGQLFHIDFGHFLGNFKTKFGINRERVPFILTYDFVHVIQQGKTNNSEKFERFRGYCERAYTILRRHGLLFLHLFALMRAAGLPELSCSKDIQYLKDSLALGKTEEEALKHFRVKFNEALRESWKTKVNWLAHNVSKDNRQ
T1 sequence (P27986 whole entry partner): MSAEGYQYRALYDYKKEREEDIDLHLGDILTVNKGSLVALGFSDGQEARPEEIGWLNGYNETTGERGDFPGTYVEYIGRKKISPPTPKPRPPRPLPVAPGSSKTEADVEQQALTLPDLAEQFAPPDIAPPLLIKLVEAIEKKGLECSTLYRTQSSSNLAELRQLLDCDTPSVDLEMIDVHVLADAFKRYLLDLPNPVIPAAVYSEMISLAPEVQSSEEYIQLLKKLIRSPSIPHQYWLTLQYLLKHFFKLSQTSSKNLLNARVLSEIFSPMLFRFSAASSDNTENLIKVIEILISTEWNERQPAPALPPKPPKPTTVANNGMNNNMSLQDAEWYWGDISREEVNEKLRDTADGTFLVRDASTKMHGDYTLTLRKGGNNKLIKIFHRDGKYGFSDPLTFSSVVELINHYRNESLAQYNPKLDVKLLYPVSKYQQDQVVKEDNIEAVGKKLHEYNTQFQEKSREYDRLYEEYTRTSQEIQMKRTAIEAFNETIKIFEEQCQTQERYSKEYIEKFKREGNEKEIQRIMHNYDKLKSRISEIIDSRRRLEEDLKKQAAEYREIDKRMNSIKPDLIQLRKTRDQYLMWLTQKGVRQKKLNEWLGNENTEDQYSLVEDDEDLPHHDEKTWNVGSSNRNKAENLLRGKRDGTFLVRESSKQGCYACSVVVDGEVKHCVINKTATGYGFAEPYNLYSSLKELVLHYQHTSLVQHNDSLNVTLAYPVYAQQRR

| PI3Kδ Inhibition (pIC50) | SMILES |
| --- | --- |
| 7.1 | CNC(=O)Nc1ccc(-c2ncc3c(n2)N2CCOC[C@@H]2C(=O)N3[C@@H](C)c2ccc(C)cc2)cc1 (single isomer, unassigned) [Example 87] |

Same assay, conditions: recombinant GST-tagged full length PIK3CD co-expressed with PIK3R1 (p85α); 2 μM ATP, 50 μM PIP2; read-out: PI3Kδ Inhibition (pIC50) (converted)

| IC50 [nM] | SMILES |
| --- | --- |
| 316 | CC(=O)Nc1ccc(-c2ncc3c(n2)N2CCOC[C@H]2CN3CC(=O)NCC2CCOCC2)cc1 [Example 224, (R)-2-(2-(4-acetamidophenyl)-6a,7,9,10-tetrahydro-[1,4]oxazino[3,4-h]pteridin-5(6H)-yl)-N-((tetrahydro-2H-pyran-4-yl)methyl)acetamide] |
| 126 | Cc1ccccc1N1C[C@@H]2COCCN2c2nc(-c3cccc4[nH]ccc34)ncc21 [Example 187, (R)-2-(1H-indol-4-yl)-5-(o-tolyl)-5,6,6a,7,9,10-hexahydro-[1,4]oxazino[3,4-h]pteridine] |
| 7.94 | CNC(=O)Nc1ccc(-c2ncc3c(n2)N2CCOCC2C(=O)N3C2CCOCC2)cc1 (stereo not drawn) [Example 158, 1-methyl-3-(4-(6-oxo-5-(tetrahydro-2H-pyran-4-yl)-5,6,6a,7,9,10-hexahydro-[1,4]oxazino[3,4-h]pteridin-2-yl)phenyl)urea] |
| 398 | CCc1ccccc1N1C[C@@H]2COCCN2c2nc(-c3cccc4[nH]ccc34)ncc21 [Example 184, (R)-5-(2-ethyl-phenyl)-2-(1H-indol-4-yl)-5,6,6a,7,9,10-hexahydro-[1,4]oxazino[3,4-h]pteridine] |
| 3.16 | c1cc(-c2ncc3c(n2)N2CCOC[C@H]2CN3C2CCOCC2)c2cc[nH]c2c1 [Example 192, (R)-2-(1H-indol-4-yl)-5-(tetrahydro-2H-pyran-4-yl)-5,6,6a,7,9,10-hexahydro-[1,4]oxazino[3,4-h]pteridine] |
| 2.51 | COC(=O)c1cc(N2C[C@@H]3COCCN3c3nc(-c4cccc5[nH]ccc45)ncc32)cnc1OC [Example 202, (R)-methyl 5-(2-(1H-indol-4-yl)-6a,7,9,10-tetrahydro-[1,4]oxazino[3,4-h]pteridin-5(6H)-yl)-2-methoxynicotinate] |
| 1000 | CCc1nnc(CN2C[C@@H]3COCCN3c3nc(-c4cncc5[nH]ccc45)ncc32)o1 [Example 167, (R)-5-((5-ethyl-1,3,4-oxadiazol-2-yl)methyl)-2-(1H-pyrrolo[2,3-c]pyridin-4-yl)-5,6,6a,7,9,10-hexahydro-[1,4]oxazino[3,4-h]pteridine] |
| 158 | OCCN1C[C@@H]2COCCN2c2nc(-c3cccc4[nH]ccc34)ncc21 [Example 173, (R)-2-(2-(1H-indol-4-yl)-6a,7,9,10-tetrahydro-[1,4]oxazino[3,4-h]pteridin-5(6H)-yl)ethanol] |
| 50.1 | Cn1cc(NC(=O)CN2C[C@@H]3COCCN3c3nc(-c4cccc5[nH]ccc45)ncc32)cn1 [Example 206, (R)-2-(2-(1H-indol-4-yl)-6a,7,9,10-tetrahydro-[1,4]oxazino[3,4-h]pteridin-5(6H)-yl)-N-(1-methyl-1H-pyrazol-4-yl)acetamide] |
| 2000 | O=C(CN1C[C@@H]2COCCN2c2nc(-c3ccc(CO)cc3)ncc21)NCC1CCOCC1 [Example 214, (R)-2-(2-(4-(hydroxymethyl)phenyl)-6a,7,9,10-tetrahydro-[1,4]oxazino[3,4-h]pteridin-5(6H)-yl)-N-((tetrahydro-2H-pyran-4-yl)methyl)acetamide] |
| 1.58 | CC(C)Cc1nnc(C(C)N2C[C@@H]3COCCN3c3nc(-c4cccc5[nH]ccc45)ncc32)o1 (stereo partly drawn) [Example 175, (6aR)-2-(1H-indol-4-yl)-5-(1-(5-isobutyl-1,3,4-oxadiazol-2-yl)ethyl)-5,6,6a,7,9,10-hexahydro-[1,4]oxazino[3,4-h]pteridine] |

Second part, the compound before the results:

| SMILES | IC50 [nM] |
| --- | --- |
| Cc1c[nH]c2c(F)ccc(-c3ncc4c(n3)N3CCOCC3CN4Cc3ccc(S(C)(=O)=O)cc3)c12 (stereo not drawn) [Example 16, 2-(7-fluoro-3-methyl-1H-indol-4-yl)-5-(4-(methylsulfonyl)benzyl)-5,6,6a,7,9,10-hexahydro-[1,4]oxazino[3,4-h]pteridine] | 6310 |
| NC(=O)c1ccccc1CN1CC2COCCN2c2nc(-c3cccc4[nH]ccc34)ncc21 (stereo not drawn) [Example 74, 2-((2-(1H-indol-4-yl)-6a,7,9,10-tetrahydro-[1,4]oxazino[3,4-h]pteridin-5(6H)-yl)methyl)benzamide] | 63.1 |
| CS(=O)(=O)c1ccc(CN2CC3COCCN3c3nc(-c4cccc5[nH]c(C(F)(F)F)cc45)ncc32)cc1 (stereo not drawn) [Example 21, 5-(4-(methylsulfonyl)benzyl)-2-(2-(trifluoromethyl)-1H-indol-4-yl)-5,6,6a,7,9,10-hexahydro-[1,4]oxazino[3,4-h]pteridine] | 1260 |
| Cc1n[nH]cc1-c1ncc2c(n1)N1CCOCC1C(=O)N2Cc1ccc(S(C)(=O)=O)cc1 (stereo not drawn) [Example 130] | 126 |
| CCc1nnc(CN2C[C@@H]3COCCN3c3nc(-c4cccc5[nH]ccc45)ncc32)o1 [Example 31, (R)-5-((5-ethyl-1,3,4-oxadiazol-2-yl)methyl)-2-(1H-indol-4-yl)-5,6,6a,7,9,10-hexahydro-[1,4]oxazino[3,4-h]pteridine] | 7.94 |
| CS(=O)(=O)c1ccc(CN2C(=O)C3COCCN3c3nc(-c4cnc5[nH]ccc5c4)ncc32)cc1 (stereo not drawn) [Example 108, 5-(4-(methylsulfonyl)benzyl)-2-(1H-pyrrolo[2,3-b]pyridin-5-yl)-6a,7,9,10-tetrahydro-[1,4]oxazino[3,4-h]pteridin-6(5H)-one] | 31.6 |
| CS(=O)(=O)c1ccc(CN2CC3COCCN3c3nc(-c4ccc(F)c5[nH]ccc45)ncc32)cc1 (stereo not drawn) [Example 17, 2-(7-fluoro-1H-indol-4-yl)-5-(4-(methylsulfonyl)benzyl)-5,6,6a,7,9,10-hexahydro-[1,4]oxazino[3,4-h]pteridine] | 39.8 |
| CNC(=O)Nc1ccc(-c2ncc3c(n2)N2CCOCC2C(=O)N3CCc2c(C)n[nH]c2C)cc1 (stereo not drawn) [Example 94, 1-(4-(5-(2-(3,5-dimethyl-1H-pyrazol-4-yl)ethyl)-6-oxo-5,6,6a,7,9,10-hexahydro-[1,4]oxazino[3,4-h]pteridin-2-yl)phenyl)-3-methylurea] | 2.51 |
| CNC(=O)Nc1ccc(-c2ncc3c(n2)N2CCOCC2CN3Cc2ccc(C)cc2)cc1 (stereo not drawn) [Example 62, 1-methyl-3-(4-(5-(4-methylbenzyl)-5,6,6a,7,9,10-hexahydro-[1,4]oxazino[3,4-h]pteridin-2-yl)phenyl)urea] | 794 |
| CS(=O)(=O)c1ccc(CN2C(=O)C3COCCN3c3nc(-c4cccc(S(=O)(=O)NC5CC5)c4)ncc32)cc1 (stereo not drawn) [Example 116, N-cyclopropyl-3-(5-(4-(methylsulfonyl)benzyl)-6-oxo-5,6,6a,7,9,10-hexahydro-[1,4]oxazino[3,4-h]pteridin-2-yl)benzenesulfonamide] | 1580 |
| CS(=O)(=O)c1ccc(CN2C(=O)C3COCCN3c3nc(-c4ccc5cn[nH]c5c4)ncc32)cc1 (stereo not drawn) [Example 124, 2-(1H-indazol-6-yl)-5-(4-(methylsulfonyl)benzyl)-6a,7,9,10-tetrahydro-[1,4]oxazino[3,4-h]pteridin-6(5H)-one] | 3980 |
| CS(=O)(=O)c1ccc(CN2C[C@H]3COCCN3c3nc(-c4cccc5[nH]ccc45)ncc32)cc1 [Example 28, (S)-2-(1H-indol-4-yl)-5-(4-(methylsulfonyl)benzyl)-5,6,6a,7,9,10-hexahydro-[1,4]oxazino[3,4-h]pteridine] | 631 |
| COc1cc(-c2ncc3c(n2)N2CCOCC2C(=O)N3Cc2ccc(S(C)(=O)=O)cc2)ccn1 (stereo not drawn) [Example 140, 2-(2-methoxypyridin-4-yl)-5-(4-(methylsulfonyl)benzyl)-6a,7,9,10-tetrahydro-[1,4]oxazino[3,4-h]pteridin-6(5H)-one] | 631 |
| Cc1cccc(CN2CC3COCCN3c3nc(-c4cccc5[nH]ccc45)ncc32)n1 (stereo not drawn) [Example 80] | 63.1 |
| CNC(=O)Nc1ccc(-c2ncc3c(n2)N2CCOCC2C(=O)N3C2CCc3ccc(OC)cc32)cc1 (stereo not drawn) [Example 148, 1-(4-(5-(6-methoxy-2,3-dihydro-1H-inden-1-yl)-6-oxo-5,6,6a,7,9,10-hexahydro-[1,4]oxazino[3,4-h]pteridin-2-yl)phenyl)-3-methylurea] | 3.98 |
| CC(C)(C)OC(=O)CN1C[C@@H]2COCCN2c2nc(-c3cccc4[nH]ccc34)ncc21 [Example 68, (R)-tert-butyl 2-(2-(1H-indol-4-yl)-6a,7,9,10-tetrahydro-[1,4]oxazino[3,4-h]pteridin-5(6H)-yl)acetate] | 50.1 |
| NC(=O)c1ccc(F)c(CN2CC3COCCN3c3nc(-c4cccc5[nH]ccc45)ncc32)c1 (stereo not drawn) [Example 77, 3-((2-(1H-indol-4-yl)-6a,7,9,10-tetrahydro-[1,4]oxazino[3,4-h]pteridin-5(6H)-yl)methyl)-4-fluorobenzamide] | 50.1 |
| COc1cc(C#N)ccc1CN1CC2COCCN2c2nc(-c3cccc4[nH]ccc34)ncc21 (stereo not drawn) [Example 47, 4-((2-(1H-indol-4-yl)-6a,7,9,10-tetrahydro-[1,4]oxazino[3,4-h]pteridin-5(6H)-yl)methyl)-3-methoxybenzonitrile] | 158 |
| CS(=O)(=O)c1ccc(CN2CC3COCCN3c3nc(-c4cccc5[nH]ncc45)ncc32)cc1 (stereo not drawn) [Example 22, 2-(1H-indazol-4-yl)-5-(4-(methylsulfonyl)benzyl)-5,6,6a,7,9,10-hexahydro-[1,4]oxazino[3,4-h]pteridine] | 20 |
| O=C(CN1C[C@@H]2COCCN2c2nc(-c3cccc(CO)c3)ncc21)NCC1CCOCC1 [Example 82, (R)-2-(2-(3-(hydroxymethyl)phenyl)-6a,7,9,10-tetrahydro-[1,4]oxazino[3,4-h]pteridin-5(6H)-yl)-N-((tetrahydro-2H-pyran-4-yl)methyl)acetamide] | 12.6 |
| NC(=O)c1cccc(CN2CC3COCCN3c3nc(-c4cccc5[nH]ccc45)ncc32)c1 (stereo not drawn) [Example 76, 3-((2-(1H-indol-4-yl)-6a,7,9,10-tetrahydro-[1,4]oxazino[3,4-h]pteridin-5(6H)-yl)methyl)benzamide] | 31.6 |
